# Assay results as given in ChEMBL document CHEMBL3885881, “DrugMatrix”.
# Species on record: Rattus norvegicus
# Assay: DrugMatrix - Regimen: Daily Repeat
# Format: toxicity, organism-based, Sprague-Dawley
# Design: regimen Daily Repeat, gender Male, age 6-8 weeks
# Settings: in vivo, po, route oral GAVAGE, vehicle 100 % WATER; for ABSOLUTE BASOPHIL / ABSOLUTE EOSINOPHIL / ABSOLUTE LYMPHOCYTE / ABSOLUTE MONOCYTE / ABSOLUTE SEGMENTED NEUTROPHIL / BASOPHIL / EOSINOPHIL / ERYTHROCYTE COUNT / HEMATOCRIT / HEMOGLOBIN / LEUKOCYTE COUNT / LYMPHOCYTE / MEAN CORPUSCULAR HEMOGLOBIN / MEAN CORPUSCULAR HEMOGLOBIN CONCENTRATION / MEAN CORPUSCULAR VOLUME / MONOCYTE / NEUTROPHIL / NUCLEATED RED BLOOD CELLS / PLATELET COUNT: tissue Blood; for ALANINE AMINOTRANSFERASE / ALBUMIN / ALKALINE PHOSPHATASE / ASPARTATE AMINOTRANSFERASE / BLOOD UREA NITROGEN / CARBON DIOXIDE / CHLORIDE / CHOLESTEROL / CREATINE PHOSPHOKINASE / CREATININE / GLUCOSE / LACTATE DEHYDROGENASE / LIPASE / PHOSPHORUS / POTASSIUM / SODIUM / TOTAL BILIRUBIN / TOTAL PROTEIN / URIC ACID: tissue Plasma
# [1] = 30 mg/kg, 120 h, dose level Low, time 5 day
# [2] = 2000 mg/kg, 72 h, dose level High, time 3 day
# [3] = 2000 mg/kg, 120 h, dose level High, time 5 day
smiles,measurement,setting,value
CC(C)NCC(O)c1ccc(NS(C)(=O)=O)cc1 (centres undefined) [SOTALOL],ABSOLUTE BASOPHIL,[1],0 CELLS/uL
same,ABSOLUTE EOSINOPHIL,[1],80.67 CELLS/uL
same,ABSOLUTE LYMPHOCYTE,[1],11724 CELLS/uL
same,ABSOLUTE MONOCYTE,[1],98 CELLS/uL
same,ABSOLUTE SEGMENTED NEUTROPHIL,[1],997.33 CELLS/uL
same,BASOPHIL,[1],0%
same,EOSINOPHIL,[1],0.67%
same,ERYTHROCYTE COUNT,[1],5.34 x10E6/uL
same,HEMATOCRIT,[1],34.2%
same,HEMOGLOBIN,[1],13.43 G/DL
same,LEUKOCYTE COUNT,[1],12.9 x10E3/uL
same,LYMPHOCYTE,[1],90.67%
same,MEAN CORPUSCULAR HEMOGLOBIN,[1],25.17 pg
same,MEAN CORPUSCULAR HEMOGLOBIN CONCENTRATION,[1],39.27 G/DL
same,MEAN CORPUSCULAR VOLUME,[1],64 fL
same,MONOCYTE,[1],0.67%
same,NEUTROPHIL,[1],8%
same,NUCLEATED RED BLOOD CELLS,[1],0 /100WBC
same,PLATELET COUNT,[1],1232.33 x10E3/uL
same,ALANINE AMINOTRANSFERASE,[1],48 u/L
same,ALBUMIN,[1],4.27 G/DL
same,ALKALINE PHOSPHATASE,[1],355 u/L
same,ASPARTATE AMINOTRANSFERASE,[1],104.33 u/L
same,BLOOD UREA NITROGEN,[1],17 mg/dL
same,CARBON DIOXIDE,[1],28.33 mmol/L
same,CHLORIDE,[1],105 MEQ/L
same,CHOLESTEROL,[1],70.67 mg/dL
same,CREATINE PHOSPHOKINASE,[1],193.67 u/L
same,CREATININE,[1],0.2 mg/dL
same,GLUCOSE,[1],131.67 mg/dL
same,LACTATE DEHYDROGENASE,[1],156 u/L
same,LIPASE,[1],9.33 u/L
same,PHOSPHORUS,[1],11.6 mg/dL
same,POTASSIUM,[1],6.59 MEQ/L
same,SODIUM,[1],150.53 MEQ/L
same,TOTAL BILIRUBIN,[1],0.2 mg/dL
same,TOTAL PROTEIN,[1],6.13 G/DL
same,URIC ACID,[1],1.17 mg/dL
same,ABSOLUTE BASOPHIL,[2],0 CELLS/uL
same,ABSOLUTE EOSINOPHIL,[2],0 CELLS/uL
same,ABSOLUTE LYMPHOCYTE,[2],13259 CELLS/uL
same,ABSOLUTE MONOCYTE,[2],47.67 CELLS/uL
same,ABSOLUTE SEGMENTED NEUTROPHIL,[2],926.67 CELLS/uL
same,BASOPHIL,[2],0%
same,EOSINOPHIL,[2],0%
same,ERYTHROCYTE COUNT,[2],5.36 x10E6/uL
same,HEMATOCRIT,[2],33.57%
same,HEMOGLOBIN,[2],13.17 G/DL
same,LEUKOCYTE COUNT,[2],14.23 x10E3/uL
same,LYMPHOCYTE,[2],93%
same,MEAN CORPUSCULAR HEMOGLOBIN,[2],24.57 pg
same,MEAN CORPUSCULAR HEMOGLOBIN CONCENTRATION,[2],39.23 G/DL
same,MEAN CORPUSCULAR VOLUME,[2],62.73 fL
same,MONOCYTE,[2],0.33%
same,NEUTROPHIL,[2],6.67%
same,NUCLEATED RED BLOOD CELLS,[2],0 /100WBC
same,PLATELET COUNT,[2],1424.33 x10E3/uL
same,ALANINE AMINOTRANSFERASE,[2],61 u/L
same,ALBUMIN,[2],3.9 G/DL
same,ALKALINE PHOSPHATASE,[2],388.67 u/L
same,ASPARTATE AMINOTRANSFERASE,[2],106.33 u/L
same,BLOOD UREA NITROGEN,[2],14 mg/dL
same,CARBON DIOXIDE,[2],21.33 mmol/L
same,CHLORIDE,[2],104 MEQ/L
same,CHOLESTEROL,[2],57.67 mg/dL
same,CREATINE PHOSPHOKINASE,[2],412.33 u/L
same,CREATININE,[2],0.15 mg/dL
same,GLUCOSE,[2],148 mg/dL
same,LACTATE DEHYDROGENASE,[2],629 u/L
same,LIPASE,[2],10 u/L
same,PHOSPHORUS,[2],11.93 mg/dL
same,POTASSIUM,[2],7.54 MEQ/L
same,SODIUM,[2],142.93 MEQ/L
same,TOTAL BILIRUBIN,[2],0.2 mg/dL
same,TOTAL PROTEIN,[2],5.5 G/DL
same,URIC ACID,[2],1.8 mg/dL
same,ABSOLUTE BASOPHIL,[3],0 CELLS/uL
same,ABSOLUTE EOSINOPHIL,[3],0 CELLS/uL
same,ABSOLUTE LYMPHOCYTE,[3],13770.67 CELLS/uL
same,ABSOLUTE MONOCYTE,[3],100.67 CELLS/uL
same,ABSOLUTE SEGMENTED NEUTROPHIL,[3],1095.33 CELLS/uL
same,BASOPHIL,[3],0%
same,EOSINOPHIL,[3],0%
same,ERYTHROCYTE COUNT,[3],5.87 x10E6/uL
same,HEMATOCRIT,[3],36.53%
same,HEMOGLOBIN,[3],14.37 G/DL
same,LEUKOCYTE COUNT,[3],14.97 x10E3/uL
same,LYMPHOCYTE,[3],92%
same,MEAN CORPUSCULAR HEMOGLOBIN,[3],24.47 pg
same,MEAN CORPUSCULAR HEMOGLOBIN CONCENTRATION,[3],39.33 G/DL
same,MEAN CORPUSCULAR VOLUME,[3],62.27 fL
same,MONOCYTE,[3],0.67%
same,NEUTROPHIL,[3],7.33%
same,NUCLEATED RED BLOOD CELLS,[3],0.33 /100WBC
same,PLATELET COUNT,[3],1192.33 x10E3/uL
same,ALANINE AMINOTRANSFERASE,[3],54.33 u/L
same,ALBUMIN,[3],4.33 G/DL
same,ALKALINE PHOSPHATASE,[3],480.33 u/L
same,ASPARTATE AMINOTRANSFERASE,[3],83 u/L
same,BLOOD UREA NITROGEN,[3],16.33 mg/dL
same,CARBON DIOXIDE,[3],24.33 mmol/L
same,CHLORIDE,[3],106 MEQ/L
same,CHOLESTEROL,[3],77 mg/dL
same,CREATINE PHOSPHOKINASE,[3],259.33 u/L
same,CREATININE,[3],0.22 mg/dL
same,GLUCOSE,[3],159.33 mg/dL
same,LACTATE DEHYDROGENASE,[3],78.67 u/L
same,LIPASE,[3],10.33 u/L
same,PHOSPHORUS,[3],13.13 mg/dL
same,POTASSIUM,[3],6.86 MEQ/L
same,SODIUM,[3],148.2 MEQ/L
same,TOTAL BILIRUBIN,[3],0.2 mg/dL
same,TOTAL PROTEIN,[3],6.13 G/DL
same,URIC ACID,[3],1.73 mg/dL
